We go through 4 molecules from patent publication US9622479B2, “Boron complexes with gradual 1-methylcyclopropene releasing capability” (The United States of America, as represented by the …, priority 2014, dated 2017).

Each structure is given as a SMILES string.

A short description of data set [1]: GC head space analysis of 1-MCP release from boron complexes mixed with water. To be noted: for consistency in releasing 1-MCP over time: FIGS. 4-7, compared with complex 2; for release of 1-MCP with time (MCP releasing curve): complex mixed vigorously with H2O in air-tight vial, head space vapor injected in GC; for amount of 1-MCP released in first 24 hours (releasing curves): FIGS. 4 & 7. It is filed as physicochemical. The protocol: Investigation of releasing 1-MCP from the boron complexes of MCP (1, 2, 3,4): Without being bound by theory, due to the moisture sensitivity of the boron complexes, the nucleophilic attack of hydroxide ion (OH—) toward the boron atom triggered the breaking of the B-C bond releasing 1-MCP as a gas.
GC analysis of dicyclohexyl-(2-methylene-cyclopropyl)-borane (1): 140 mg of the complex was mixed vigorously with 0.6 mL of H2O in a 1.5 mL air-tight vial. The vapor collected (8 μl) from the head space of the solution was injected in a GC with an MXTR-1 column. The data were compared with a reference standard of 1-MCP.
GC analysis of dihexyl-(2-methylene-cyclopropyl)-borane (2): 291 mg of the complex was mixed vigorously with 1.0 mL of H2O in a 3 mL air-tight vial. The vapor collected (100 μL) from the head space of the solution was injected in a GC with an MXTR-1 column. The data were compared with a reference standard of 1-MCP.
GC analysis of tris-(2-methylene-cyclopropyl)-borane (3): 94 mg of the complex was mixed vigorously with 0.4 mL of H2O in a 1.5 mL air-tight vial. The vapor collected (8 μL) from the head space of the solution was injected in a GC with an MXTR-1 column. The data were compared with a reference standard of 1-MCP.
GC analysis of diphenyl-(2-methylene-cyclopropyl)-borane (4): 393 mg of the complex was mixed vigorously with 2.0 mL of H2O in a 3 mL air-tight vial. The vapor collected from the head space of the solution was injected in a Hewlett-Packard 5890 GC with capillary column (30 m×0.25 mm i.d.) coated with a 0.25 μm film of 5% phenyl methyl silicon and a flame ionization detector. The temperature of GC was programmed at 30° C. isothermal with an injection point temperature of 50° C. The detector was operated at 230° C. and sample was injected under split less condition. Helium was used as carrier gas with a 1.5 mL/min column flow.
However, during this analysis it was observed that some other compounds were also released. Those compounds formed due to the breakage of other B-C bonds were cyclohexane and cyclohexanol from complex 1 or hexane and hexanol from complex 2. Complex 3 also released some byproducts either by incomplete hydrolysis of the complex or Markovnikov addition of H2O.

The nature of data set [2]: 1-MCP concentration inside the jars by GC analysis after 24 hour treatment. It is filed as physicochemical. The following applies: 1-gal airtight jars, equivalent amount of complex, 2 mL water. The protocol: (§1) Boron complex 1 was tested on green tomatoes. Six 3.9 L air tight glass jars were taken for investigation containing five green tomatoes each. The tomatoes in three jars were treated with 1-MCP released from the reaction between Boron complex 1 and water in a 14 mL vial with continuous stirring, which was placed inside the jars. The other jars were kept in identical condition without placing any boron complex inside. The treatment was carried out for 24 hours. The concentration level of 1-MCP was determined (9 to 13 μLL^-1) after 24 hours of reaction by GC analysis using 2-methyl-1-propene as a standard. After 24 hours treatment all the tomatoes were kept in open environment and monitored for their color changes.
(§2) For the comparative studies between DCMB (1) and DPMB (4), experiment was performed with three 1-gal airtight jars containing eight tomatoes each which were collected from the same source but different time. One jar was used as blank containing no complex and the other two jars Were treated with equivalent amount of DCMB (1) (393 mg) and DPMB (4) (376.5 mg) complex respectively arid water (2 mL), The concentration of released 1-MCP inside the jars was calculated by GC analysis after 24 hour treatment The treated and untreated tomatoes were subjected to quality analysis under identical conditions.

For a further data set, the system named is green tomatoes. Put plainly: Green tomatoes treated with 1-MCP released from Boron complex 1 and water; color and firmness quality analysis. Type of data set: in vivo. The protocol: as §1, with “changes. Quality Analysis: Noninoculated tomatoes were treated with Boron complex 1 as described before and kept in open air for 9 days. Quality analysis (color and firmness) was performed at 22±2° C. Color was measured with a Hunter UltraScan® VIS colorimeter (Hunter Associates Lab, Reston, Va.) and firmness was evaluated with a TA-XT2i Texture Analyzer (Texture Technologies Corp., Scarsdale, N.Y.). Four measurements were taken for each tomato for color and firmness. The color of the tomatoes was measured seven times during the investigation period and firmness was determined at the end of 9th day.” for “changes.”

The next data set deals with tomatoes. Briefly: Comparative quality analysis of tomatoes treated with DCMB (1) and DPMB (4). It is filed as in vivo. The following applies: for darkness (L*) of tomatoes during storage / redness (a*/b*) of tomatoes during storage: 7 days storage at 22±2° C.; for darkness (L*) of tomatoes during storage: FIG. 14; for redness (a*/b*) of tomatoes during storage: FIG. 15; for average firmness of tomatoes: day 7, storage at 22±2° C., FIG. 16. The protocol: as §2
Quality Analysis: Noninoculated tomatoes were treated with Boron complex 1 as described before and kept in open air for 9 days. Quality analysis (color and firmness) was performed at 22±2° C. Color was measured with a Hunter UltraScan® VIS colorimeter (Hunter Associates Lab, Reston, Va.) and firmness was evaluated with a TA-XT2i Texture Analyzer (Texture Technologies Corp., Scarsdale, N.Y.). Four measurements were taken for each tomato for color and firmness. The color of the tomatoes was measured seven times during the investigation period and firmness was determined at the end of 9th day.
Similar results were found in a*/b* value (FIG. 15). […] The firmness data of the treated tomatoes was compared to that of non-treated tomatoes at Day 7 (NT-7D, Exp 2) and also at Day 0 (NT-OD, Exp 2), which were collected from the same batch. […] However, a significant difference was observed between the non-treated tomatoes at day 7 (2.68 kg) and non-treated fruits at day 0.

For the molecule `C=C1CC1B(C1CC1=C)C1CC1=C` (centres unmarked) [complex 3, tris-(2-methylene-cyclopropyl)-borane], in data set [1], the “consistency in releasing 1-MCP over time” value is recorded as “more consistent in releasing 1-MCP over time” and the “release of 1-MCP with time (MCP releasing curve)” value (from here on “release of 1-MCP with time”) is “released gradually with time”.

For `C=C1CC1B(C1CCCCC1)C1CCCCC1` (centres unmarked) [complex 1, dicyclohexyl-(2-methylene-cyclopropyl)-borane], in data set [1], the “amount of 1-MCP released in first 24 hours (releasing curves)” value is listed as “near to its highest point in first 24 hours”, the “consistency in releasing 1-MCP over time” value is given as “more consistent in releasing 1-MCP over time” and the “release of 1-MCP with time” value was “released gradually with time”. Also, the “area ratio of released 1-MCP over cyclohexane vs. temperature” value in data set [1] (GC experiment at different temperatures, FIG. 8) was “increased at lower temperature”. The “concentration of 1-MCP” value in data set [2] turned out to be 5 μLL-1. Further, the “tomato color at the end of nine days” value in the data set on green tomatoes (24 hours treatment, then open environment, all untreated turned red) is “half of the treated tomatoes were still green”. In addition, the “tomato color after 4 days” value in the data set with green tomatoes (24 hours treatment, then open environment, untreated turned yellow) is on record as “remained green”. The “darkness (L*) of tomatoes during storage” value with green tomatoes (9 days storage at 22±2° C., FIG. 10) is on record as “did not significantly change”. Also, in the data set with green tomatoes (9 days storage at 22±2° C., FIG. 11), the “redness (a*/b*) of tomatoes during storage” value (“redness (a*/b*)” below) was “increased slowly but not in significant value”. Besides, the firmness of tomatoes in the data set on green tomatoes (end of 9th day, storage at 22±2° C., FIG. 12) is 1.42 (±0.35) kg. Moreover, the “foreign spots on the surface of the treated tomatoes” value in the data set with green tomatoes (in vivo) is given as “No foreign spots were observed”. Besides, in the data set with tomatoes, the “darkness (L*) of tomatoes during storage” value is recorded as “did not significantly change”, the “redness (a*/b*)” value is “did not change significantly or increased very slowly” and the “average firmness of tomatoes” value stood at 4.20 kg.

As for `C=C1CC1B(CCCCCC)CCCCCC` (centres unmarked) [complex 2, dihexyl-(2-methylene-cyclopropyl)-borane], the “release of 1-MCP with time” value in data set [1] was “released gradually with time”.

Consider `C=C1CC1B(c1ccccc1)c1ccccc1` (centres unmarked) [complex 4, diphenyl-(2-methylene-cyclopropyl)-borane], for which, in data set [1], the “amount of 1-MCP released in first 24 hours (releasing curves)” value is “relatively low in first 24 hours” and the “release of 1-MCP with time” value is “released gradually with time”. The “concentration of 1-MCP” value in data set [2] stood at 1 μLL-1. In the data set with tomatoes, the “darkness (L*) of tomatoes during storage” value is “remained in the middle”, the “redness (a*/b*)” value was “slower increase than the non-treated tomatoes” and the “average firmness of tomatoes” value came to 3.10 kg.
